The target in one assay is T1, ErbB2 or EGFR.
T1 construct: enzymes purified from a baculovirus expression system; Reagent production was conducted essentially as described in Brignola, P. S., et al, (2002) J. Biol. Chem. 277(2): 1576-1585
In words: ErbB family substrate phosphorylation enzyme assay (HTRF), Method A or Method B. The assay is classed as biochemical. In outline:
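Baculovirus-expressed EGFR or ErbB2 (0.8 or 10 nM in enzyme mix) phosphorylates biotinylated Peptide C with 20 µM ATP and 0.8 µM peptide (substrate-mix levels), MnCl2, pH 7.5. Reaction ran 90 min at 20 °C with EDTA stop and HTRF anti-phosphotyrosine read. Method A: enzyme added last; Method B: 1 h enzyme–compound preincubation.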
Background: In TR-FRET formats the signal depends on donor and acceptor labels being close together.

In assay [1] the test system is BT474 and HN5 tumor cell lines. In words: Methylene blue growth inhibition assay (cellular Method A). The assay is classed as cell-based, Human. Particulars: 3 days, read-out: Activity (Method): growth inhibition IC50 class. The procedure, abridged: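 Colo205, BT474 and HN5 cells in DMEM/10% FBS (BT474 10,000, HN5 3,000 cells/well) treated next day with compound in DMEM, 0.3% final DMSO, for 3 days at 37° C. Biomass stained with methylene blue, solubilized, read at OD 620; IC50 interpolated by nonlinear regression from % inhibition versus vehicle.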

For a further assay, the system named is Colo205 tumor cell lines. In words: Methylene blue growth inhibition assay (cellular Method A), Colo205. Type of assay: cell-based, Human. Particulars: 3 days, read-out: Activity (Method): growth inhibition IC50 class. As for the experimental part: Human breast (BT474) and head and neck (HN5) were cultured in low glucose DMEM (Life Technologies 12320-032) containing 10% fetal bovine serum (FBS). Human colon tumor cells (Colo205) were cultured in DMEM (Invitrogen, 10564) containing 10% FBS. The SV40 transformed human mammary epithelial cell line HB4a was transfected with either human H-ras cDNA (HB4a r4.2) or the human c-ErbB2 cDNA (HB4a c5.2). The HB4a clones were cultured in RPMI containing 10% FBS, insulin (5 g/mL), hydrocortisone (5 g/mL), supplemented with the selection agent hygromycin B (50 g/mL). All lines were grown in a humidified incubator at 37° C. in 95% air, 5% CO2. Cells were harvested using trypsin/EDTA, counted using a haemocytometer, and plated in 100 microliters of the appropriate media, at the following densities, in a 96-well tissue culture plate (Falcon 3075): BT474 10,000 cells/well, HN5 3,000 cells/well. The next day, compounds were diluted in DMEM containing […] gentamicin, at twice the final required concentration, from 10 mM stock solutions in DMSO. 100 microliters/well of these dilutions were added to the 100 microliters of media currently on the cell plates. Medium containing 0.6% DMSO was added to control wells. Compounds diluted in DMEM were added to all cell lines. The final concentration of DMSO in all wells was 0.3%. Cells were returned to the incubator (37° C., 10% CO2) for 3 days. Medium was then removed by aspiration. Cell biomass was estimated by staining cells with 90 microliters per well methylene blue (Sigma M9140, 0.5% in 1:1 ethanol:water), and incubation at rt for at least 30 minutes. Stain was removed, and the plates rinsed by immersion in deionized water and air-dried. To release stain from the cells 100 microliters of solubilization solution was added (1% N-lauroyl sarcosine, Sodium salt, Sigma L5125, in PBS), and plates were shaken gently for about 30 minutes. Optical density at 620 nm was measured on a microplate reader. Percent inhibition of cell growth was calculated relative to vehicle treated control wells. Concentration of compound that inhibits 50% of control cell growth (IC50) was interpolated using nonlinear regression (Levenberg-Marquardt) and the equation, y=Vmax*(1−(x/(K+x)))+Y2, where “K” was equal to the IC50. Method B: Celltiter Glo® Growth Inhibition Assays

The mark [2] stands for this setting: Method B: enzyme mix pre-incubated with compound 1 hour at 20° C., started with substrate mix.
Setting [3] is: Method A: substrate mix added first, reaction started with enzyme mix.

This is an account of results in patent US7812022B2 (GlaxoSmithKline LLC, priority 2004, dated 2010).

Read-outs that look alike come from different tables or passages of the source.

What is called IC50 is the concentration that gives 50% inhibition.

`COc1ccc(Nc2nccc(-c3c(-c4cccc(NC(=O)c5c(F)cccc5F)c4)nn4ccccc34)n2)cc1O` [Example 166, 2,6-Difluoro-N-{3-[3-(2-{[3-hydroxy-4-(methyloxy)phenyl]amino}-4-pyrimidinyl)pyrazolo[1,5-a]pyridin-2-yl]phenyl}benzamide]: at ErbB2 or EGFR (setting [2]), the “Activity (Method): pIC50 class against ErbB2 or EGFR” value (shortened to “Activity (Method): pIC50 class”) is “+++ (B) (at least one pIC50 measurement of greater than 7 against either ErbB2 or EGFR)”. In addition, the IC50 is below 100 nM in assay [1] (Homo sapiens, BT-474, 72 h) and above 1000 nM in the assay with Colo205 tumor cell lines (Homo sapiens, COLO 205, 72 h).
For the compound `CN1CCc2ccc(Nc3nccc(-c4c(-c5cccc(NC(=O)c6cc(F)ccc6F)c5)nn5ccccc45)n3)cc2C1` [Example 189, 2,5-Difluoro-N-[3-(3-{2-[(2-methyl-1,2,3,4-tetrahydro-7-isoquinolinyl)amino]-4-pyrimidinyl}pyrazolo[1,5-a]pyridin-2-yl)phenyl]benzamide], at ErbB2 or EGFR (setting [2]), the “Activity (Method): pIC50 class” value is listed as “+++ (B) (at least one pIC50 measurement of greater than 7 against either ErbB2 or EGFR)”. For the same compound, the IC50 is below 100 nM in assay [1] (Homo sapiens, BT-474, 72 h) and above 1000 nM in the assay with Colo205 tumor cell lines (Homo sapiens, COLO 205, 72 h).
Consider `Cn1cccc1C(=O)Nc1cccc(-c2nn3ccccc3c2-c2ccnc(Nc3cccc(C#N)c3)n2)c1` [Example 150, N-{3-[3-(2-(3-Cyanophenyl)amino-4-pyrimidinyl)-pyrazolo[1,5-b]pyridin-2-yl]-phenyl}-1-methyl-1H-pyrrole-2-carboxamide], for which, on ErbB2 or EGFR (setting [2]), the “Activity (Method): pIC50 class” value was “+++ (B) (at least one pIC50 measurement of greater than 7 against either ErbB2 or EGFR)”. For the same compound, the IC50 was below 100 nM in assay [1] (Homo sapiens, BT-474, 72 h) and above 1000 nM with Colo205 tumor cell lines (Homo sapiens, COLO 205, 72 h).
Regarding `COc1cc(CS(C)(=O)=O)ccc1Nc1nccc(-c2c(-c3cccc(NC(=O)c4c(F)cccc4F)c3)nn3ccccc23)n1` [Example 122], the “Activity (Method): pIC50 class” value at ErbB2 or EGFR (setting [2]) is “+++ (B) (at least one pIC50 measurement of greater than 7 against either ErbB2 or EGFR)”. In addition, the half-inhibitory concentration (IC50) (in assay [1]; in the assay with Colo205 tumor cell lines) was 100 to 1000 nM each time.
As for `CN1CCN(Cc2cccc(Nc3nccc(-c4c(-c5cccc(NC(=O)c6c(F)cccc6F)c5)nn5ccccc45)n3)c2)CC1` [Example 57, 2,6-Difluoro-N-(3-{3-[2-({3-[(4-methyl-1-piperazinyl)-methyl]phenyl}amino)-4-pyrimidinyl]pyrazolo[1,5-a]pyridin-2-yl}phenyl)benzamide], the “Activity (Method): pIC50 class” value on ErbB2 or EGFR (setting [2]) is “+++ (B) (at least one pIC50 measurement of greater than 7 against either ErbB2 or EGFR)”. The IC50 in assay [1] (Homo sapiens, BT-474, 72 h) is below 100 nM; in the assay on Colo205 tumor cell lines (Homo sapiens, COLO 205, 72 h), 100 to 1000 nM.
`O=C(Nc1cccc(-c2nn3ccccc3c2-c2ccnc(Nc3ccccc3)n2)c1)c1ccc(Cl)cc1` [Example 142, 4-Chloro-N-(3-{3-[2-(phenylamino)-4-pyrimidinyl]pyrazolo[1,5-a]pyridin-2-yl}phenyl)benzamide]: on ErbB2 or EGFR (setting [3]), the “Activity (Method): pIC50 class” value is given as “++ (A) (at least one pIC50 measurement greater than 6 against either ErbB2 or EGFR but no measurement greater than pIC50 of 7)”. Besides, the concentration for half-maximal inhibition (IC50) in assay [1] (Homo sapiens, BT-474, 72 h) was above 1000 nM; in the assay with Colo205 tumor cell lines (Homo sapiens, COLO 205, 72 h), above 1000 nM.
With `O=C(Nc1cccc(-c2nn3ccccc3c2-c2ccnc(Nc3cccc(CCN4CCOCC4)c3)n2)c1)c1c(F)cccc1F` [Example 54, 2,6-Difluoro-N-(3-{3-[2-({3-[2-(4-morpholinyl)ethyl]-phenyl}amino)-4-pyrimidinyl]pyrazolo[1,5-a]pyridin-2-yl}phenyl)benzamide], the “Activity (Method): pIC50 class” value on ErbB2 or EGFR (setting [3]) is given as “+++ (A) (at least one pIC50 measurement of greater than 7 against either ErbB2 or EGFR)”. The half-maximal inhibitory concentration (IC50) in assay [1] (Homo sapiens, BT-474, 72 h) was below 100 nM; in the assay on Colo205 tumor cell lines (Homo sapiens, COLO 205, 72 h), 100 to 1000 nM.
Regarding `CN(C)CCCOc1cccc(Nc2nccc(-c3c(-c4cccc(NC(=O)c5c(F)cccc5F)c4)nn4ccccc34)n2)c1` [Example 198, N-[3-(3-{2-[(3-{[3-(dimethylamino)propyl]oxy}phenyl)amino]-4-pyrimidinyl}pyrazolo[1,5-a]pyridin-2-yl)phenyl]-2,6-difluorobenzamide], the “Activity (Method): pIC50 class” value at ErbB2 or EGFR (setting [2]) was “+++ (B) (at least one pIC50 measurement of greater than 7 against either ErbB2 or EGFR)”. Also, the half-maximal inhibitory concentration (IC50) was below 100 nM in assay [1] (Homo sapiens, BT-474, 72 h) and 100 to 1000 nM with Colo205 tumor cell lines (Homo sapiens, COLO 205, 72 h).
For the compound `NS(=O)(=O)CCc1cccc(Nc2nccc(-c3c(-c4cccc(NC(=O)c5c(F)cccc5F)c4)nn4ccccc34)n2)c1` [Example 119, N-(3-{3-[2-({3-[2-(aminosulfonyl)ethyl]phenyl}-amino)-4-pyrimidinyl]pyrazolo[1,5-a]pyridin-2-yl}phenyl)-2,6-difluorobenzamide], the “Activity (Method): pIC50 class” value on ErbB2 or EGFR (setting [2]) is “+++ (B) (at least one pIC50 measurement of greater than 7 against either ErbB2 or EGFR)”. Also, the IC50 was below 100 nM in assay [1] (Homo sapiens, BT-474, 72 h) and 100 to 1000 nM with Colo205 tumor cell lines (Homo sapiens, COLO 205, 72 h).
Turning to `C=CCN(C)CCOc1cccc(Nc2nccc(-c3c(-c4cccc(NC(=O)c5cc(F)ccc5F)c4)nn4ccccc34)n2)c1` [Example 196, 2,5-Difluoro-N-{3-[3-(2-{[3-({2-[methyl(2-propen-1-yl)amino]ethyl}oxy)phenyl]amino}-4-pyrimidinyl)pyrazolo[1,5-a]pyridin-2-yl]phenyl}benzamide], the “Activity (Method): pIC50 class” value on ErbB2 or EGFR (setting [2]) is on record as “+++ (B) (at least one pIC50 measurement of greater than 7 against either ErbB2 or EGFR)”. For the same compound, the IC50 is below 100 nM in assay [1] (Homo sapiens, BT-474, 72 h) and 100 to 1000 nM with Colo205 tumor cell lines (Homo sapiens, COLO 205, 72 h).
On the same counts, the results for `CN1CCN(c2cccc(Nc3nccc(-c4c(-c5cccc(NC(=O)c6c(F)cccc6F)c5)nn5ccccc45)n3)c2)CC1` [Example 109, 2,6-Difluoro-N-{3-[3-(2-{[3-(4-methyl-1-piperazinyl)-phenyl]amino}-4-pyrimidinyl)pyrazolo[1,5-a]pyridin-2-yl]phenyl}benzamide] are “+++ (B) (at least one pIC50 measurement of greater than 7 against either ErbB2 or EGFR)”, below 100 nM and 100 to 1000 nM.
Consider `NC1Cc2ccc(Nc3nccc(-c4c(-c5cccc(NC(=O)c6c(F)cccc6F)c5)nn5ccccc45)n3)cc2C1` (stereo not drawn) [Example 177, N-[3-(3-{2-[(2-Amino-2,3-dihydro-1H-inden-5-yl)amino]-4-pyrimidinyl}pyrazolo[1,5-a]pyridin-2-yl)phenyl]-2,6-difluorobenzamide], for which, at ErbB2 or EGFR (setting [2]), the “Activity (Method): pIC50 class” value is on record as “+++ (B) (at least one pIC50 measurement of greater than 7 against either ErbB2 or EGFR)”. The IC50 in assay [1] (Homo sapiens, BT-474, 72 h) was below 100 nM; in the assay with Colo205 tumor cell lines (Homo sapiens, COLO 205, 72 h), 100 to 1000 nM.
Take `COc1ccc(Nc2nccc(-c3c(-c4cccc(NC(=O)c5c(F)cccc5F)c4)nn4ccccc34)n2)cc1N1CCN(C)CC1` [Example 201, 2,6-Difluoro-N-{3-[3-(2-{[4-(methyloxy)-3-(4-methyl-1-piperazinyl)phenyl]amino}-4-pyrimidinyl)pyrazolo[1,5-a]pyridin-2-yl]phenyl}benzamide]: the “Activity (Method): pIC50 class” value on ErbB2 or EGFR (setting [2]) is given as “+++ (B) (at least one pIC50 measurement of greater than 7 against either ErbB2 or EGFR)”. Also, the IC50 in assay [1] (Homo sapiens, BT-474, 72 h) is below 100 nM; in the assay on Colo205 tumor cell lines (Homo sapiens, COLO 205, 72 h), 100 to 1000 nM.
Take `COc1ccc(Nc2nccc(-c3c(-c4cccc(NC(=O)c5c(F)cccc5F)c4)nn4ccccc34)n2)cc1F` [Example 29, 2,6-Difluoro-N-{3-[3-(2-{[3-fluoro-4-(methyloxy)-phenyl]amino}-4-pyrimidinyl)pyrazolo[1,5-a]pyridin-2-yl]phenyl}benzamide]: the “Activity (Method): pIC50 class” value on ErbB2 or EGFR (setting [3]) is listed as “++ (A) (at least one pIC50 measurement greater than 6 against either ErbB2 or EGFR but no measurement greater than pIC50 of 7)”. Also, the IC50 in assay [1] (Homo sapiens, BT-474, 72 h) was below 100 nM; in the assay on Colo205 tumor cell lines (Homo sapiens, COLO 205, 72 h), above 1000 nM.
